Results reported in patent US8389247B2, “Physiogenomic method for predicting diabetes and metabolic syndromes induced by psychotropic drugs” (priority 2006, dated 2013).

Legend:
[1] = cited from earlier work
[2] = Outcome variables of patients on each psychotropic drug broken down by demographic factors (Covariates tables); format: in vivo, human

Structure (SMILES): Cc1cc2c(s1)Nc1ccccc1N=C2N1CCN(C)CC1 [olanzapine]
- treated patients with induced weight gain, diabetes and other metabolic derangements [1]: 50%
- BM (body mass) ([2]; Age 20-30): 87.06
- Glucose (blood glucose level) ([2]; Age 20-30): 88.65
- HDL (HDL cholesterol level) ([2]; Age 20-30): 48.55
- LDL (LDL cholesterol level) ([2]; Age 20-30): 104.10
- Log (TG) (triglyceride level) ([2]; Age 20-30): 5.086
- TC (total cholesterol level) ([2]; Age 20-30): 189.00
- Waist (waist circumference) ([2]; Age 20-30): 99.18
- dBP (diastolic blood pressure) ([2]; Age 20-30): 75.15
- sBP (systolic blood pressure) ([2]; Age 20-30): 118.20
- BM (body mass) ([2]; Age 30-40): 83.17
- Glucose (blood glucose level) ([2]; Age 30-40): 92.29
- HDL (HDL cholesterol level) ([2]; Age 30-40): 47.68
- LDL (LDL cholesterol level) ([2]; Age 30-40): 103.73
- Log (TG) (triglyceride level) ([2]; Age 30-40): 5.168
- TC (total cholesterol level) ([2]; Age 30-40): 189.82
- Waist (waist circumference) ([2]; Age 30-40): 97.82
- dBP (diastolic blood pressure) ([2]; Age 30-40): 74.14
- sBP (systolic blood pressure) ([2]; Age 30-40): 117.32
- BM (body mass) ([2]; Age 40-50): 79.34
- Glucose (blood glucose level) ([2]; Age 40-50): 92.47
- HDL (HDL cholesterol level) ([2]; Age 40-50): 52.40
- LDL (LDL cholesterol level) ([2]; Age 40-50): 107.00
- Log (TG) (triglyceride level) ([2]; Age 40-50): 4.968
- TC (total cholesterol level) ([2]; Age 40-50): 202.00
- Waist (waist circumference) ([2]; Age 40-50): 98.32
- dBP (diastolic blood pressure) ([2]; Age 40-50): 78.10
- sBP (systolic blood pressure) ([2]; Age 40-50): 119.10
- BM (body mass) ([2]; Age 50-60): 95.73
- Glucose (blood glucose level) ([2]; Age 50-60): 86.67
- HDL (HDL cholesterol level) ([2]; Age 50-60): 49.67
- LDL (LDL cholesterol level) ([2]; Age 50-60): 104.00
- Log (TG) (triglyceride level) ([2]; Age 50-60): 5.373
- TC (total cholesterol level) ([2]; Age 50-60): 204.67
- Waist (waist circumference) ([2]; Age 50-60): 105.80
- dBP (diastolic blood pressure) ([2]; Age 50-60): 87.00
- sBP (systolic blood pressure) ([2]; Age 50-60): 136.33
- BM (body mass) ([2]; Age 70-80): 44.40
- Glucose (blood glucose level) ([2]; Age 70-80): 92.00
- HDL (HDL cholesterol level) ([2]; Age 70-80): 68.00
- LDL (LDL cholesterol level) ([2]; Age 70-80): 94.00
- Log (TG) (triglyceride level) ([2]; Age 70-80): 4.159
- TC (total cholesterol level) ([2]; Age 70-80): 174.0
- Waist (waist circumference) ([2]; Age 70-80): 65.00
- dBP (diastolic blood pressure) ([2]; Age 70-80): 66.00
- sBP (systolic blood pressure) ([2]; Age 70-80): 100.0
- BM (body mass) ([2]; Age <20): 65.00
- Glucose (blood glucose level) ([2]; Age <20): 109.00
- HDL (HDL cholesterol level) ([2]; Age <20): 28.00
- LDL (LDL cholesterol level) ([2]; Age <20): 68.00
- Log (TG) (triglyceride level) ([2]; Age <20): 4.787
- TC (total cholesterol level) ([2]; Age <20): 120.00
- Waist (waist circumference) ([2]; Age <20): 96.00
- dBP (diastolic blood pressure) ([2]; Age <20): 77.00
- sBP (systolic blood pressure) ([2]; Age <20): 109.00
- BM (body mass) ([2]; All patients on the drug): 82.90
- Glucose (blood glucose level) ([2]; All patients on the drug): 91.22
- HDL (HDL cholesterol level) ([2]; All patients on the drug): 49.45
- LDL (LDL cholesterol level) ([2]; All patients on the drug): 104.11
- Log (TG) (triglyceride level) ([2]; All patients on the drug): 5.072
- TC (total cholesterol level) ([2]; All patients on the drug): 192.60
- Waist (waist circumference) ([2]; All patients on the drug): 98.21
- dBP (diastolic blood pressure) ([2]; All patients on the drug): 76.12
- sBP (systolic blood pressure) ([2]; All patients on the drug): 118.58
- BM (body mass) ([2]; Gender female): 82.39
- Glucose (blood glucose level) ([2]; Gender female): 97.53
- HDL (HDL cholesterol level) ([2]; Gender female): 51.89
- LDL (LDL cholesterol level) ([2]; Gender female): 118.94
- Log (TG) (triglyceride level) ([2]; Gender female): 4.985
- TC (total cholesterol level) ([2]; Gender female): 212.16
- Waist (waist circumference) ([2]; Gender female): 100.74
- dBP (diastolic blood pressure) ([2]; Gender female): 75.84
- sBP (systolic blood pressure) ([2]; Gender female): 116.79
- BM (body mass) ([2]; Gender male): 83.10
- Glucose (blood glucose level) ([2]; Gender male): 88.98
- HDL (HDL cholesterol level) ([2]; Gender male): 48.48
- LDL (LDL cholesterol level) ([2]; Gender male): 98.54
- Log (TG) (triglyceride level) ([2]; Gender male): 5.107
- TC (total cholesterol level) ([2]; Gender male): 184.85
- Waist (waist circumference) ([2]; Gender male): 97.21
- dBP (diastolic blood pressure) ([2]; Gender male): 76.23
- sBP (systolic blood pressure) ([2]; Gender male): 119.29
- BM (body mass) ([2]; Heritage AA): 87.38
- Glucose (blood glucose level) ([2]; Heritage AA): 98.31
- HDL (HDL cholesterol level) ([2]; Heritage AA): 54.00
- LDL (LDL cholesterol level) ([2]; Heritage AA): 109.14
- Log (TG) (triglyceride level) ([2]; Heritage AA): 5.060
- TC (total cholesterol level) ([2]; Heritage AA): 197.57
- Waist (waist circumference) ([2]; Heritage AA): 96.82
- dBP (diastolic blood pressure) ([2]; Heritage AA): 77.00
- sBP (systolic blood pressure) ([2]; Heritage AA): 119.79
- BM (body mass) ([2]; Heritage Cauc.): 81.98
- Glucose (blood glucose level) ([2]; Heritage Cauc.): 89.24
- HDL (HDL cholesterol level) ([2]; Heritage Cauc.): 48.16
- LDL (LDL cholesterol level) ([2]; Heritage Cauc.): 103.53
- Log (TG) (triglyceride level) ([2]; Heritage Cauc.): 5.115
- TC (total cholesterol level) ([2]; Heritage Cauc.): 193.30
- Waist (waist circumference) ([2]; Heritage Cauc.): 98.17
- dBP (diastolic blood pressure) ([2]; Heritage Cauc.): 75.48
- sBP (systolic blood pressure) ([2]; Heritage Cauc.): 118.38
- BM (body mass) ([2]; Heritage Hisp.): 110.91
- Glucose (blood glucose level) ([2]; Heritage Hisp.): 91.00
- HDL (HDL cholesterol level) ([2]; Heritage Hisp.): 47.00
- LDL (LDL cholesterol level) ([2]; Heritage Hisp.): 147.00
- Log (TG) (triglyceride level) ([2]; Heritage Hisp.): 4.700
- TC (total cholesterol level) ([2]; Heritage Hisp.): 216.00
- Waist (waist circumference) ([2]; Heritage Hisp.): 144.00
- dBP (diastolic blood pressure) ([2]; Heritage Hisp.): 91.00
- sBP (systolic blood pressure) ([2]; Heritage Hisp.): 132.00
- BM (body mass) ([2]; Heritage Other): 60.45
- Glucose (blood glucose level) ([2]; Heritage Other): 93.50
- HDL (HDL cholesterol level) ([2]; Heritage Other): 51.00
- LDL (LDL cholesterol level) ([2]; Heritage Other): 61.50
- Log (TG) (triglyceride level) ([2]; Heritage Other): 4.263
- TC (total cholesterol level) ([2]; Heritage Other): 128.50
- Waist (waist circumference) ([2]; Heritage Other): 86.00
- dBP (diastolic blood pressure) ([2]; Heritage Other): 78.50
- sBP (systolic blood pressure) ([2]; Heritage Other): 108.50
- BM ([2]; patients on the named drug): 82.90
- BMI ([2]; patients on the named drug): 27.12
- Glucose ([2]; patients on the named drug): 91.22
- HDL ([2]; patients on the named drug): 49.45
- LDL ([2]; patients on the named drug): 104.11
- Log (TG) ([2]; patients on the named drug): 5.072
- MSI ([2]; patients on the named drug): −0.1290
- TC ([2]; patients on the named drug): 192.60
- Waist ([2]; patients on the named drug): 98.21
- dBP ([2]; patients on the named drug): 76.12
- sBP ([2]; patients on the named drug): 118.58
